The test system of one data set is FaDu. Briefly: Antiproliferative activity against human FaDu cells assessed as inhibition of cell growth at 10 uM measured after 48 to 72 hrs by MTT assay relative to control. It counts as functional. The following applies: time 48-72 hrs. Background: Tetrazolium dyes change colour on reduction, which living cells bring about.
The test system of the next data set is MCF7. Put plainly: Antiproliferative activity against human MCF7 cells assessed as inhibition of cell growth at 10 uM measured after 48 to 72 hrs by MTT assay relative to control. It counts as functional. The note with it: time 48-72 hrs.
In the next data set the test system is A549. Briefly: Antiproliferative activity against human A549 cells assessed as inhibition of cell growth at 10 uM measured after 48 to 72 hrs by MTT assay relative to control. It counts as functional. The note with it: time 48-72 hrs.
Another data set concerns MDA-MB-231. Put plainly: Antiproliferative activity against human MDA-MB-231 cells assessed as inhibition of cell growth at 10 uM measured after 48 to 72 hrs by MTT assay relative to control. It counts as functional. The following applies: time 48-72 hrs.
Data set [1] in a line: Antiproliferative activity against human HCC cells assessed as inhibition of cell growth at 10 uM measured after 48 to 72 hrs by MTT assay relative to control. The following applies: time 48-72 hrs. It counts as functional.
The test system of a further data set is T47D. Briefly: Antiproliferative activity against human T47D cells assessed as inhibition of cell growth at 10 uM measured after 48 to 72 hrs by MTT assay relative to control. The following applies: time 48-72 hrs. It counts as functional.
The subject of another data set is HEK293. Put plainly: Antiproliferative activity against HEK293 cells assessed as inhibition of cell growth at 10 to 25 uM measured after 48 to 72 hrs by MTT assay. It counts as toxicity, cell-based. The note with it: human, hek293, 25 µM; dose lower 10 µM, time lower 48 hrs, dose upper 25 µM, time upper 72 hrs.
In data set [2] the target is T1, DNA topoisomerase 1 (Homo sapiens) (UniProt P11387).
T1 sequence (whole entry): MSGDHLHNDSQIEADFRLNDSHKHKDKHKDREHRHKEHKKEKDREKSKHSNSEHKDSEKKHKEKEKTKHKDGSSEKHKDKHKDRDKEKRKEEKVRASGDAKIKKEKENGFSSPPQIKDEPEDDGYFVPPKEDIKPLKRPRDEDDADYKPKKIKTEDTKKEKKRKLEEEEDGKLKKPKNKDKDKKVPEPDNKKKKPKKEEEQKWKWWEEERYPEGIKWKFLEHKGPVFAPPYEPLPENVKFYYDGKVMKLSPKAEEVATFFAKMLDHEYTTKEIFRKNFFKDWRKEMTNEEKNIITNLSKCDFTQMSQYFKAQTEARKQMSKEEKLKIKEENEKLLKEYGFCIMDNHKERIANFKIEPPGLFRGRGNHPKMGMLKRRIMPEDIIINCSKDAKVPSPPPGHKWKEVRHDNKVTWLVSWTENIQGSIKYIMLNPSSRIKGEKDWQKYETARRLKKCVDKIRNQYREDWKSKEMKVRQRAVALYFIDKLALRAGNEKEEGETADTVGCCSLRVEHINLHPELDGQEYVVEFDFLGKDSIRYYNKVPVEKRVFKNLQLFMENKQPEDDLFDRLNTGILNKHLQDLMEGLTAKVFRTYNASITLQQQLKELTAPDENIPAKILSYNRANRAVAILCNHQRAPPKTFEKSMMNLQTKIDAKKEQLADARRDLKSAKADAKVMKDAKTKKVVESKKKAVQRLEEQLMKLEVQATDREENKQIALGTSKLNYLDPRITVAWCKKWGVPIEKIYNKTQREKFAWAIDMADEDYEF
Briefly: Inhibition of human topoisomerase-I extracted from baculovirus expression system using SC-DNA as substrate incubated for 30 mins by EtBr staining based agarose gel electrophoresis method.

Data set [3] addresses T1, DNA topoisomerase 1 (Homo sapiens). Briefly: Inhibition of human topoisomerase-I extracted from baculovirus expression system assessed as relaxation of supercoiled DNA using SC-DNA as substrate incubated for 30 mins by EtBr staining based agarose gel electrophoresis method.
Data set [4] concerns the target DNA topoisomerase 2-alpha (Homo sapiens) (UniProt P11388). Put plainly: Inhibition of human topoisomerase-II alpha assessed as reduction in decatenation activity using kinetoplast DNA as substrate incubated for 30 mins by EtBr staining based agarose gel electrophoresis method.
For data set [5], the target named is T2, Prostaglandin G/H synthase 1 (Ovis aries) (UniProt P05979).
T2 sequence (whole entry): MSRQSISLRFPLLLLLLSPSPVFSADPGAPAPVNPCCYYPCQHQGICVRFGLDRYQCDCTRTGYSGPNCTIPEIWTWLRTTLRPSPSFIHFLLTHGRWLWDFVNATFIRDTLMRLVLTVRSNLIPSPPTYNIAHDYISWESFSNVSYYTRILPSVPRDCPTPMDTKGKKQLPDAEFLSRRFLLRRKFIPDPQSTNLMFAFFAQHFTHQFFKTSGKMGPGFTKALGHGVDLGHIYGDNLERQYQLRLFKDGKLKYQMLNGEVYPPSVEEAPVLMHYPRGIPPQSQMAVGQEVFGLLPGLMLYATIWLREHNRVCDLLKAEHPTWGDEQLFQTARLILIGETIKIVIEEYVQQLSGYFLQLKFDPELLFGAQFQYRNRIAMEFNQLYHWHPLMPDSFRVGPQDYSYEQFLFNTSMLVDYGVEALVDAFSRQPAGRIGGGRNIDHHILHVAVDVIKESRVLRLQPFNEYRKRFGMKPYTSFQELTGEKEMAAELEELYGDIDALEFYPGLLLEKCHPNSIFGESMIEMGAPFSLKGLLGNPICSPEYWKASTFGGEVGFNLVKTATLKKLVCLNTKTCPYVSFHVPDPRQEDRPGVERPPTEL
Briefly: Inhibition of ovine COX-1 at 10 uM relative to control.

The target in data set [6] is T3, Prostaglandin G/H synthase 2 (Homo sapiens) (UniProt P35354).
T3 sequence (whole entry): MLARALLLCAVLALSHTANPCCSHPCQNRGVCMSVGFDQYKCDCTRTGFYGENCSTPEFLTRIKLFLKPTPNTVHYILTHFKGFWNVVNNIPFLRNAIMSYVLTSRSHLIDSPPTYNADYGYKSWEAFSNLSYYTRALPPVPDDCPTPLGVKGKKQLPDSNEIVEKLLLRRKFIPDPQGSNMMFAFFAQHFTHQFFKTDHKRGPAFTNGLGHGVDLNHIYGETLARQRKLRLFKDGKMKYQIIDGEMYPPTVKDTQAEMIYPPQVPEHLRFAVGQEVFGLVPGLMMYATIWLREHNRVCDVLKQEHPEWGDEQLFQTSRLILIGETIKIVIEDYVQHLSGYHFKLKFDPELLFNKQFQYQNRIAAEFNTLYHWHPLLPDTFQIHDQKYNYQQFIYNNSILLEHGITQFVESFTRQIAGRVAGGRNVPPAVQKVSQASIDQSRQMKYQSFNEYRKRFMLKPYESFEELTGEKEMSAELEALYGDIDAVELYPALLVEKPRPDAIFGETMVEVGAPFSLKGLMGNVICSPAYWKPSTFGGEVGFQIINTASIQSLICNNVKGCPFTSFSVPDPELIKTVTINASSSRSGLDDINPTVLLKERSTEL
Briefly: Inhibition of human recombinant COX-2 at 10 uM relative to control.

SMILES strings stand for the structures.

A word on the inhibition: it is the relative decrease from the control value, in per cent.

DNA topoisomerase 2-alpha (Homo sapiens), sequence (P11388 whole entry): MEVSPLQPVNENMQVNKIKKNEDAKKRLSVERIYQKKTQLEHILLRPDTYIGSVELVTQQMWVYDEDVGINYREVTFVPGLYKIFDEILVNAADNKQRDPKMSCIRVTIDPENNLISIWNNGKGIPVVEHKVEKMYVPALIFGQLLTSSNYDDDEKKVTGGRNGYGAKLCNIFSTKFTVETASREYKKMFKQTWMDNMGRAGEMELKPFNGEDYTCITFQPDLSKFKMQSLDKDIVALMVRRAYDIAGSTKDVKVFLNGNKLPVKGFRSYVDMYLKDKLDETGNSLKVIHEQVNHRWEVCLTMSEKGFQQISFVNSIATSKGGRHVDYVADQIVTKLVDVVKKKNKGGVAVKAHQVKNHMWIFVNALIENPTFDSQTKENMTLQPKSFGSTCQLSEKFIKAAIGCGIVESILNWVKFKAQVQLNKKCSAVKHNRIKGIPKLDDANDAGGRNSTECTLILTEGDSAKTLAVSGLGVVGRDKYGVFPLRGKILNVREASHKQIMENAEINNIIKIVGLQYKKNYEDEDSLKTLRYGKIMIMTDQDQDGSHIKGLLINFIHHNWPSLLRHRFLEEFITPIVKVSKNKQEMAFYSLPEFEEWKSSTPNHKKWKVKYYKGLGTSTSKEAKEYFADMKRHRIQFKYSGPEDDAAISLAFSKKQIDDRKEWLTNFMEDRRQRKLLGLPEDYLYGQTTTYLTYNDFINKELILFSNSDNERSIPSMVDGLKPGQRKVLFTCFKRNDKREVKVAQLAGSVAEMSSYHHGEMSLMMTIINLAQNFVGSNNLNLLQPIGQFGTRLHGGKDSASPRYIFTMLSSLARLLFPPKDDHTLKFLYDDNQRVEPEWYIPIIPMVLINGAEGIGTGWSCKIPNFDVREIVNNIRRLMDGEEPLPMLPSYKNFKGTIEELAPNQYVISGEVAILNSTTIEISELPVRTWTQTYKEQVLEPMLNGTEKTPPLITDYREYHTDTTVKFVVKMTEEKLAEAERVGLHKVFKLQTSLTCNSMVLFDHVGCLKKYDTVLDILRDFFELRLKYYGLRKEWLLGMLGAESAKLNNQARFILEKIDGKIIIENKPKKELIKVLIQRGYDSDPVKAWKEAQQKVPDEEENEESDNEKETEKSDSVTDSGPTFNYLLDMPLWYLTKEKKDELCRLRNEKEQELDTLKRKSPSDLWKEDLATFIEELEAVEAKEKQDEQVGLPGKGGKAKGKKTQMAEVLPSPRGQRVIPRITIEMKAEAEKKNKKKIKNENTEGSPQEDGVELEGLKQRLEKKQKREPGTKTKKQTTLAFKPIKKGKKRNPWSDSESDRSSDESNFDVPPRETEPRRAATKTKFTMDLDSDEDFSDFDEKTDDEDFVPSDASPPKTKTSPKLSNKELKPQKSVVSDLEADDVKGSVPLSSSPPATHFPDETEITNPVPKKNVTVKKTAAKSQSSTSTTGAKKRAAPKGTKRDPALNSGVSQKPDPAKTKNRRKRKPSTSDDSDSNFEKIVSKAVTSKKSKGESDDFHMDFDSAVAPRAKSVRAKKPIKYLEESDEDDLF

With `Brc1ccc(Cc2nc(NCCN3CCNCC3)c3c4c(sc3n2)CCCC4)cc1`, the inhibition at 10 µM in the data set on FaDu was determined as 74.7%; with MCF7, 19.4%; in the data set with A549 it was 34.2%; in the data set with MDA-MB-231, 1.23%; in data set [1] it was 1.24%; with T47D, 54%. Moreover, the Activity result in the data set with HEK293 is given as “Non-toxic”. The inhibition result was “Active; Compound Showed Potent Inhibition Activity Than Camptothecin” in [2]; “Active; Compound Showed Significant Inhibition Than Compound 7A” in data set [3]; “Active; Compound Showed Weak Effect” in data set [4]; 28.5% in data set [5]; 57.9% in [6].

Source of the values: ChEMBL document CHEMBL6177930, “2-(4-Bromobenzyl) tethered 4-amino aryl/alkyl-5,6,7,8-tetrahydrobenzo[4,5]thieno[2,3-d]pyrimidines: design, synthesis, anticancer assessment via dual topoisomerase-I/II inhibition, and in silico studies” (RSC Med Chem, 2025).
